Where two headings read alike, the source gives them in different places.
Columns and labels:
MAPKAP-K2 = MAPKAP-K2 (Homo sapiens, UniProt P49137); experiment: MAPKAP-K2 enzyme activity inhibition (33P-ATP filter plate kinase assay); format: biochemical; details: MAPKAP-K2 inhibitory activity; assays conducted at typically 1-100 μM; further: key: +: active; ++: more active; +++: very active
Method: [General Procedure for Measurement of MAPKAP-K2 Enzyme Activity Inhibition]
After conducting the reaction for 30 minutes at room temperature, an equivalent volume of a 200 mM phosphoric acid solution was added to suspend the reaction, and 90 μL of the reaction product was adsorbed onto a MultiScreen PH plate (Millipore) and rinsed with a 100 mM phosphoric acid solution. After drying the plate, 30 μL of MicroScint-O (Packard BioScience) was added, and the cpm was measured with a scintillation counter to determine the inhibiting activity. Substrate peptide is […]

CDK-2 = CDK-2 (Homo sapiens, UniProt P24941); experiment: CDK-2 enzyme activity inhibition (33P-ATP filter plate kinase assay); format: biochemical
Source text: [General Procedure for Measurement of CDK-2 Enzyme Activity Inhibition]

[1] = read-out: CDK-2 inhibition IC50

MAPKAP-K2, sequence (P49137 whole entry): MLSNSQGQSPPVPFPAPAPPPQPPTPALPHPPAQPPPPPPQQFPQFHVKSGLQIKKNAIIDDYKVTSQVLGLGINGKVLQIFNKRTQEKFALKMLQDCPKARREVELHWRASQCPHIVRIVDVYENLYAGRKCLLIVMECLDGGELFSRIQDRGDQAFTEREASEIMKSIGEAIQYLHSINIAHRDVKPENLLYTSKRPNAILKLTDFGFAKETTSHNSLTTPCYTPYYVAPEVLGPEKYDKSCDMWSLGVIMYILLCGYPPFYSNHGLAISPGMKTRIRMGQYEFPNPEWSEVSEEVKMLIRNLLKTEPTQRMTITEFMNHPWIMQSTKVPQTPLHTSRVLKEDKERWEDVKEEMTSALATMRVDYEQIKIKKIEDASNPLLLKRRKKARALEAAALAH

activity (efficacy against MAPKAP-K2) (MAPKAP-K2)	IC50 (CDK-2) [µM]	IC50 (CDK-2; [1]) [µM]	SMILES
++	–	–	CCCC1CCNCC1Nc1nc2ccnn2c(Nc2ccc(OCC)cc2)c1C (racemic) [Compound 814, 7-N-(4-Ethoxy-phenyl)-6-methyl-5-N-(4-propyl-piperidin-3-yl)-pyrazolo[1,5-a]pyrimidine-5,7-diamine]
++	< 100	–	N#Cc1cnn2c(Nc3ccc(F)c(Cl)c3)cc(N[C@H]3CC[C@H](N)CC3)nc12 [Compound 1]
+	–	< 100	N[C@H]1CC[C@H](Nc2cc(NCc3ccc(F)c(Cl)c3)n3ncc(Br)c3n2)CC1 [Compound 13]
++	–	< 100	CCc1c(N[C@H]2CC[C@H](N)CC2)nc2ccnn2c1Nc1ccccc1OC [Compound 42]
++	–	< 100	N[C@H]1CC[C@H](Nc2cc(Nc3ccccc3Cl)n3ncc(I)c3n2)CC1 [Compound 47]
+++	–	< 100	CCc1c(NC2CCCNC2)nc2ccnn2c1Nc1ccc(Oc2ccc(C)cc2)cc1 (stereo not shown) [Compound 63]
+++	–	< 100	CCOc1ccc(Nc2cc(N[C@H]3CC[C@H](N)CC3)nc3c(C#N)cnn23)cc1 [Compound 64]
+++	–	< 100	CCOC(=O)c1cccc(Nc2c(C)c(N[C@H]3CC[C@H](N)CC3)nc3ccnn23)c1 [Compound 68]
+++	–	< 100	CCOC(=O)c1ccc(Nc2c(CC)c(N[C@H]3CC[C@H](N)CC3)nc3ccnn23)cc1 [Compound 70]
+++	–	< 100	CCc1c(N[C@H]2CC[C@H](N)CC2)nc2ccnn2c1Nc1cccc(C)c1 [Compound 72]
++	–	< 100	CCc1c(N[C@H]2CC[C@H](N)CC2)nc2ccnn2c1Nc1cccc(OCc2ccccc2)c1 [Compound 74]
+++	–	< 100	CCOc1cccc(Nc2c(C)c(N[C@H]3CC[C@H](N)CC3)nc3ccnn23)c1 [Compound 81]
++	–	< 100	CCCNc1c(C)c(N[C@H]2CC[C@H](N)CC2)nc2ccnn12 [Compound 87]
+++	–	< 100	Cc1ccc(Nc2c(C)c(NC3CCCNC3)nc3ccnn23)cc1C (stereo not shown) [Compound 89]
++	–	< 100	COc1cccc(Nc2c(C)c(N[C@H]3CC[C@H](N)CC3)nc3ccnn23)c1 [Compound 91]
+++	–	< 100	Cc1c(NC2CCCNC2)nc2ccnn2c1Nc1ccc(I)cc1 (stereo not shown) [Compound 105]
+++	–	< 100	CCOc1ccc(Nc2c(C(C)C)c(N[C@H]3CC[C@H](N)CC3)nc3ccnn23)cc1 [Compound 114]
++	–	< 100	CCc1c(N[C@H]2CC[C@H](N)CC2)nc2ccnn2c1Nc1ccc(N2CCCC2=O)cc1 [Compound 125]
+++	–	< 100	Cc1c(N[C@H]2CC[C@H](N)CC2)nc2ccnn2c1Nc1ccc2cn[nH]c2c1 [Compound 131]
+++	–	< 100	CCOC(=O)c1ccc(Nc2c(CC)c(N[C@H]3CC[C@H](N)CC3)nc3ccnn23)cc1Cl [Compound 137]
+++	–	< 100	CCOc1ccc(Nc2c(-c3ccc(OC)cc3)c(N[C@H]3CC[C@H](N)CC3)nc3ccnn23)cc1 [Compound 140]
++	–	–	Cc1c(NC2CCCNC2)nc2ccnn2c1Nc1ccc(F)c(Cl)c1 (stereo not shown) [Compound 152]
+++	–	< 100	Cc1c(NC2CCCNC2)nc2ccnn2c1Nc1ccccc1F (stereo not shown) [Compound 156]
++	–	< 100	CCc1c(NC2CCCNC2)nc2ccnn2c1Nc1ccc(Br)cc1 (stereo not shown) [Compound 160]
+++	–	< 100	N#Cc1cnn2c(Nc3ccccc3Cl)cc(N[C@H]3CC[C@H](N)CC3)nc12 [Compound 170]

activity (efficacy against MAPKAP-K2) (MAPKAP-K2)	IC50 (CDK-2) [µM]	IC50 (CDK-2; [1]) [µM]	SMILES
++	–	< 100	COc1c(N[C@H]2CC[C@H](N)CC2)nc2ccnn2c1Nc1ccc(F)c(Cl)c1 [Compound 172]
+++	–	< 100	CCOc1ccc(Nc2c(OC)c(NC3CCCNC3)nc3ccnn23)cc1 (stereo not shown) [Compound 173]
+++	–	< 100	Cc1c(N[C@H]2CC[C@H](N)CC2)nc2ccnn2c1Nc1ccc(OCc2ccccc2)cc1 [Compound 176]
+++	–	< 100	Cc1c(N[C@H]2CC[C@H](N)CC2)nc2ccnn2c1Nc1ccc(OC(F)(F)F)cc1 [Compound 179]
+++	< 100	–	Cc1c(NC2CCCNC2)nc2ccnn2c1Nc1ccc(F)c(Cl)c1 (stereo not shown) [Compound 191]
+++	–	< 100	Cc1c(N[C@H]2CC[C@H](N)CC2)nc2ccnn2c1Nc1ccc(O)cc1 [Compound 196]
+++	–	< 100	Cc1c(N[C@H]2CC[C@H](N)CC2)nc2ccnn2c1Nc1ccc(OC(C)C)cc1 [Compound 197, {5-[(trans-4-aminocyclohexyl)amino]-6-methyl(pyrazolo[1,5-a]pyrimidin-7-yl)}[4-(methylethoxy)phenyl]amine]
+++	–	< 100	Cc1c(N[C@H]2CC[C@H](N)CC2)nc2ccnn2c1Nc1ccc(OCCCl)cc1 [Compound 199]
+++	–	< 100	CCCOc1ccc(Nc2c(C)c(N[C@H]3CC[C@H](N)CC3)nc3ccnn23)cc1 [Compound 201]
+++	–	< 100	Cc1c(N[C@H]2CC[C@H](N)CC2)nc2ccnn2c1Nc1ccc(OC2CCCCC2)cc1 [Compound 202]
+++	–	< 100	COc1ccc(Nc2c(C)c(N[C@H]3CC[C@H](N)CC3)nc3ccnn23)cc1 [Compound 203]
++	–	< 100	Cc1c(N[C@H]2CC[C@H](N)CC2)nc2ccnn2c1Nc1ccc(OCc2ccc(N)cc2)cc1 [Compound 204]
++	–	–	Cc1c(N[C@H]2CC[C@H](N)CC2)nc2ccnn2c1Nc1cccc(OCCN2CCNCC2)c1 [Compound 259, {5-[(trans-4-aminocyclohexyl)amino]-6-methyl(pyrazolo[1,5-a]pyrimidin-7-yl)}[3-(2-piperazinylethoxy)phenyl]amine]
++	–	–	CCOc1ccc(Nc2c(C)c(NC3CCCCNC3)nc3ccnn23)cc1 (stereo not shown) [Compound 272, [5-(azaperhydroepin-3-ylamino)-6-methyl(pyrazolo[1,5-a]pyrimidin-7-yl)](4-ethoxyphenyl)amine]
–	–	< 100	CCOc1ccc(Nc2c(C)c(NC(CO)C(C)C)nc3ccnn23)cc1 (stereo not shown) [Compound 366]
–	–	< 100	CCOc1ccc(Nc2c(C)c(NC3(CO)CCCC3)nc3ccnn23)cc1 [Compound 368]
–	–	< 100	CCOc1ccc(Nc2c(C)c(NC(C)(C)CO)nc3ccnn23)cc1 [Compound 371]
+++	–	–	Cc1c(N[C@H]2CC[C@H](N)CC2)nc2ccnn2c1Nc1ccc(C#Cc2ccccc2)cc1 [Compound 375, {5-[(trans-4-aminocyclohexyl)amino]-6-methyl(pyrazolo[1,5-a]pyrimidin-7-yl)}[4-(2-phenylethynyl)phenyl]amine]
+	–	–	CCOc1ccc(Nc2c(C)c(N[C@H]3CC[C@H](N)CC3)nc3c(NC(C)=O)cnn23)cc1 [Compound 378, N-{5-[(trans-4-aminocyclohexyl)amino]-7-[(4-ethoxyphenyl)amino]-6-methyl(pyrazolo[1,5-a]pyrimidin-3-yl)}acetamide]
+	–	–	CCOc1ccc(Nc2c(C)c(N[C@H]3CC[C@H](N)CC3)nc3c(NS(C)(=O)=O)cnn23)cc1 [Compound 386, {5-[(trans-4-aminocyclohexyl)amino]-7-[(4-ethoxyphenyl)amino]-6-methyl(pyrazolo[1,5-a]pyrimidin-3-yl)}(methylsulfonyl)amine]
++	–	–	CCOc1ccc(Nc2c(C)c(N[C@H]3CC[C@H](N)CC3)nc3c(NC(=O)Nc4ccccc4)cnn23)cc1 [Compound 389, N-{5-[(trans-4-aminocyclohexyl)amino]-7-[(4-ethoxyphenyl)amino]-6-methyl(pyrazolo[1,5-a]pyrimidin-3-yl)}(phenylamino)carboxamide]
–	–	< 100	CCOc1ccc(Nc2c(C)c(N[C@H]3CC[C@H](N)CC3)nc3c(OC)cnn23)cc1 [Compound 425]
+	–	–	CCOc1ccc(Nc2c(C)c(N[C@H]3CC[C@H](N)CC3)nc3c(NCc4ccccc4)cnn23)cc1 [Compound 436, {5-[(trans-4-aminocyclohexyl)amino]-6-methyl-[3-benzylamino](pyrazolo[1,5-a]pyrimidin-7-yl)}(4-ethoxyphenyl)amine]
+++	–	–	Cc1c(N[C@H]2CC[C@H](N)CC2)nc2ccnn2c1Nc1cccc(-c2cccnc2)c1 [Compound 450, {5-[(trans-4-aminocyclohexyl)amino]-6-methyl(pyrazolo[1,5-a]pyrimidin-7-yl)}(3-(3-pyridyl)phenyl)amine]
+++	–	–	Cc1c(N[C@H]2CC[C@H](N)CC2)nc2ccnn2c1Nc1ccc(C(=O)N2CCCC2)cc1 [Compound 792, 4-({5-[(trans-4-aminocyclohexyl)amino]-6-methyl(pyrazolo[1,5-a]pyrimidin-7-yl)}amino)phenyl pyrrolidinyl ketone]

— patent publication US7557110B2, “Pyrazolo[1,5-A] pyrimidine derivatives” (Teijin Pharma Limited, priority 2003, dated 2009)
